# Assay results from US9873709B2 (priority 2013, dated 2018).
# Test system: JAK1-dependent STAT6 phosphorylation downstream of IL-13 stimulation in TF-1 human erythroleukemia cells
# Experiment: cells
# Conditions: TF-1, read-out: IL-13-pSTAT6 IC50
row,SMILES,IC50
1,"CCOC(=O)N1CC=C(c2cccn3nc(Nc4ccc(C(=O)N5CCC(c6ccncc6)C5)cc4)nc23)CC1 (centres unmarked) [Example 2-62, ethyl 4-[2-[4-[3-(4-pyridyl)pyrrolidine-1-carbonyl]anilino]-[1,2,4]triazolo[1,5-a]pyridin-8-yl]-3,6-dihydro-2H-pyridine-1-carboxylate]",0.03 µM
2,"O=C(CCC(F)(F)F)N1CC=C(c2cccn3nc(Nc4ccc(C(=O)N5CCCC6(CCCN6)CC5)cc4)nc23)CC1 (centres unmarked) [Example 2-384, 1-[4-[2-[4-(1,9-diazaspiro[4.6]undecane-9-carbonyl)anilino]-[1,2,4]triazolo[1,5-a]pyridin-8-yl]-3,6-dihydro-2H-pyridin-1-yl]-4,4,4-trifluoro-butan-1-one]",0.093 µM
3,"CN1CCC(N(C)C(=O)c2ccc(Nc3nc4c(C5=CCN(C(=O)c6ccccc6)CC5)cccn4n3)cc2)CC1 [Example 2-408, 4-[[8-(1-benzoyl-3,6-dihydro-2H-pyridin-4-yl)-[1,2,4]triazolo[1,5-a]pyridin-2-yl]amino]-N-methyl-N-(1-methyl-4-piperidyl)benzamide]",0.188 µM
4,"CN1CCC(N(C)C(=O)c2ccc(Nc3nc4c(C5=CCN(C(=O)OCC#N)CC5)cccn4n3)cc2)CC1 [Example 2-7, cyanomethyl 4-[2-[4-[methyl-(1-methyl-4-piperidyl)carbamoyl]anilino]-[1,2,4]triazolo[1,5-a]pyridin-8-yl]-3,6-dihydro-2H-pyridine-1-carboxylate]",0.0429 µM
5,"CCOC(=O)N1CC=C(c2cccn3nc(Nc4ccc(C(=O)N5CC6(CCCNC6)C5)cc4)nc23)CC1 [Example 2-185, ethyl 4-[2-[4-(2,8-diazaspiro[3,5]nonane-2-carbonyl)anilino]-[l,2,4]triazolo[l,5-a]pyridin-8-yl]-3,6-dihydro-2H-pyridine-1-carboxylate]",0.0299 µM
6,"O=C(CCC(F)(F)F)N1CC=C(c2cccn3nc(Nc4ccc(C(=O)N5CCO[C@@H]6CNC[C@@H]65)cc4)nc23)CC1 [Example 2-139, 1-[4-[2-[4-[(4aS,7aR)-3,4a,5,6,7,7a-hexahydro-2H-pyrrolo[3,4-b][1,4]oxazine-4-carbonyl]anilino]-[1,2,4]triazolo[1,5-a]pyridin-8-yl]-3,6-dihydro-2H-pyridin-1-yl]-4,4,4-trifluoro-butane-1-one]",0.358 µM
7,"CN1CCN(CCNC(=O)c2ccc(Nc3nc4c(N5CCC(O)(c6ccc(Cl)cc6)CC5)cccn4n3)cc2)CC1 [Example 1-97, 4-[[8-[4-(4-chlorophenyl)-4-hydroxy-1-piperidyl]-[1,2,4]triazolo[1,5-a]pyridin-2-yl]amino]-N-[2-(4-methylpiperazin-1-yl)ethyl]benzamide]",0.025 µM
8,"CCOC(=O)N1CC=C(c2cccn3nc(Nc4ccc(C(=O)N(C)CCc5ccncc5)cc4)nc23)CC1 [Example 2-119, ethyl 4-[2-[4-[methyl-[2-(4-pyridyl)ethyl]carbamoyl]anilino]-[1,2,4]triazolo[1,5-a]pyridin-8-yl]-3,6-dihydro-2H-pyridine-1-carboxylate]",0.0239 µM
9,"O=C(CCC(F)(F)F)N1CC=C(c2cccn3nc(Nc4ccc(C(=O)N5CCC6(CCNC6)C5)cc4)nc23)CC1 (centres unmarked) [Example 2-28, 1-[4-[2-[4-(2,7-diazaspiro[4.4]nonane-2-carbonyl)anilino]-[1,2,4]triazolo[1,5-a]pyridin-8-yl]-3,6-dihydro-2H-pyridin-1-yl]-4,4,4-trifluoro-butan-1-one]",0.207 µM

# Now from value to compound:
row,IC50,SMILES
1,0.0238 µM,"CN1CCCCC1CNC(=O)c1ccc(Nc2nc3c(N4CCC(O)(c5ccc(Cl)cc5)CC4)cccn3n2)cc1 (centres unmarked) [Example 1-103, 4-[[8-[4-(4-chlorophenyl)-4-hydroxy-1-piperidyl]-[1,2,4]triazolo[1,5-a]pyridin-2-yl]amino]-N-[(1-methyl-2-piperidyl)methyl]benzamide]"
2,0.0141 µM,"O=C(CCC(F)(F)F)N1CC=C(c2cccn3nc(Nc4ccc(C(=O)N5CCN(CCN6CCOCC6)CC5)cc4)nc23)CC1 [Example 2-474, 4,4,4-trifluoro-1-[4-[2-[4-[4-(2-morpholinoethyl)piperazine-1-carbonyl]anilino]-[1,2,4]triazolo[1,5-a]pyridin-8-yl]-3,6-dihydro-2H-pyridin-1-yl]butan-1-one]"
3,0.0189 µM,"CCOC(=O)N1CC=C(c2cccn3nc(Nc4ccc(C(=O)N5CC(N)C5)cc4)nc23)CC1 [Example 2-74, ethyl 4-[2-[4-(3-aminoazetidine-1-carbonyl)anilino]-[1,2,4]triazolo[1,5-a]pyridin-8-yl]-3,6-dihydro-2H-pyridine-1-carboxylate]"
4,0.0097 µM,"CC(C)CN1CCN(C(=O)c2ccc(Nc3nc4c(C5=CCN(C(=O)CCC(F)(F)F)CC5)cccn4n3)cc2)CC1 [Example 2-266, 4,4,4-trifluoro-1-[4-[2-[4-(4-isobutylpiperazine-1-carbonyl)anilino]-[1,2,4]triazolo[1,5-a]pyridin-8-yl]-3,6-dihydro-2H-pyridin-1-yl]butan-1-one]"
5,0.0098 µM,"O=C(CCC(F)(F)F)N1CC=C(c2cccn3nc(Nc4ccc(C(=O)N5CCCC(N6CCOCC6)C5)cc4)nc23)CC1 (centres unmarked) [Example 2-339, 4,4,4-trifluoro-1-[4-[2-[4-(3-morpholinopiperidine-1-carbonyl)anilino]-[1,2,4]triazolo[1,5-a]pyridin-8-yl]-3,6-dihydro-2H-pyridin-1-yl]butan-1-one]"
6,0.0053 µM,"O=C(CCC(F)(F)F)N1CC=C(c2cccn3nc(Nc4ccc(C(=O)N5CCN(C6CCC6)CC5)cc4)nc23)CC1 [Example 2-260, 1-[4-[2-[4-(4-cyclobutylpiperazine-1-carbonyl)anilino]-[1,2,4]triazolo[1,5-a]pyridin-8-yl]-3,6-dihydro-2H-pyridin-1-yl]-4,4,4-trifluoro-butan-1-one]"
7,0.0236 µM,"CCOC(=O)N1CC=C(c2cccn3nc(Nc4ccc(C(=O)OC5CCN(C)CC5)cc4)nc23)CC1 [Example 2-94, ethyl 4-[2-[4-[(1-methyl-4-piperidyl)oxycarbonyl]anilino]-[1,2,4]triazolo[1,5-a]pyridin-8-yl]-3,6-dihydro-2H-pyridine-1-carboxylate]"
8,0.0216 µM,"CCOC(=O)N1CC=C(c2cccn3nc(Nc4ccc(C(=O)N5CCNCC5C)cc4)nc23)CC1 (centres unmarked) [Example 2-24, ethyl 4-[2-[4-(2-methylpiperazine-1-carbonyl)anilino]-[1,2,4]triazolo[1,5-a]pyridin-8-yl]-3,6-dihydro-2H-pyridine-1-carboxylate]"
9,0.0179 µM,"O=C(NCCN1CCCC1)c1ccc(Nc2nc3c(C4=CCN(C(=O)CCC(F)(F)F)CC4)cccn3n2)cc1 [Example 2-466, N-(2-pyrrolidin-1-ylethyl)-4-[[8-[1-(4,4,4-trifluorobutanoyl)-3,6-dihydro-2H-pyridin-4-yl]-[1,2,4]triazolo[1,5-a]pyridin-2-yl]amino]benzamide]"
10,0.0226 µM,"O=C(c1ccc(Nc2nc3c(N4CCC(O)(c5ccc(Cl)cc5)CC4)cccn3n2)cc1)N1CCN2CCCC2C1 (centres unmarked) [Example 1-168, 3,4,6,7,8,8a-hexahydro-1H-pyrrolo[1,2-a]pyrazin-2-yl-[4-[[8-[4-(4-chlorophenyl)-4-hydroxy-1-piperidyl]-[1,2,4]triazolo[1,5-a]pyridin-2-yl]amino]phenyl] methanone]"
11,0.0075 µM,"O=C(CCC(F)(F)F)N1CC=C(c2cccn3nc(Nc4ccc(C(=O)N5CCC(c6ccncc6)CC5)cc4)nc23)CC1 [Example 2-456, 4,4,4-trifluoro-1-[4-[2-[4-[4-(4-pyridyl)piperidine-1-carbonyl]anilino]-[1,2,4]triazolo[1,5-a]pyridin-8-yl]-3,6-dihydro-2H-pyridin-1-yl]butan-1-one]"
